The results in this text go back to ChEMBL document CHEMBL3301361, “Experimental in vitro DMPK and physicochemical data on a set of publicly disclosed compounds”.

Molecules are shown by their SMILES.

This data set is described as follows: physchem. The conditions noted are these: octan-1-ol/water.

For orientation: logD means lipophilicity at a set pH, counting ionised and neutral species. Low values mean lower lipophilicity, high ones higher lipophilicity. Where the note is “pH 7.4, LogD7.4”, `CN1Cc2c(N)cccc2[C@@H](c2ccccc2)C1` registered a pH-dependent lipophilicity (logD) of 2.11.
Compound `CS(=O)(=O)c1ccc(C(=O)Nc2ccc(Cl)c(-c3ccccn3)c2)c(Cl)c1` [VISMODEGIB] gave a logD (pH 7.4, LogD7.4) of 2.84.
For the setting “pH 7.4”, `O=C(NCC1CCOCC1)c1ncccc1NC(=O)c1cccc2ccccc12` registered a logD of 4.4.
Regarding `O=C(Nc1nnn[nH]1)c1cc(Oc2ccccc2)c2ccccn2c1=O` [QUINOTOLAST], the logD (pH 7.4, LogD7.4) was 0.67.
For the compound `Cc1cc(Oc2ccnc(Nc3ccc(N4CCOCC4)cc3)c2)c(-c2ccccn2)nc1C`, the pH-dependent lipophilicity (logD) (pH 7.4, LogD7.4) stood at 2.59.
The same measure, in the same setting: then `O=c1ccnc2cc(C#Cc3ccccc3)ccn12`, with 2.9.
The compound `CC12NC(Cc3ccccc31)c1ccccc12` (centres undefined) gave a logD (pH 7.4) of 1.7.
Turning to `CCOC(=O)[C@H](Cc1ccc([N+](=O)[O-])cc1)NC(=O)c1ccccc1`, for the setting “pH 7.4, LogD7.4”, the pH-dependent lipophilicity (logD) is 2.79.
Take `CN(C)CCOc1ccccc1Cc1ccccc1` [PHENYLTOLOXAMINE]: where the note is “pH 7.4, LogD7.4”, the logD was 2.53.
In turn, `CCCSc1ncccc1C(=O)N(C)[C@@H]1[C@@H]2CC3C[C@H]1C[C@@](O)(C3)C2` showed a logD (pH 7.4, LogD7.4) of 2.49.
Same read-out and setting: with `O=S(=O)(NCC(c1ccccc1)N1CCCCCC1)c1ccc(C(F)(F)F)cc1` (centres undefined) the figure was 4.29; with `Cc1[nH]c2ccccc2c1CCNCc1ccc(/C=C/C(=O)NO)cc1` [PANOBINOSTAT], 1.1; with `O=C(O)c1ccc(-c2nnn(Cc3ccccc3F)n2)cc1`, 0.3.
As to `C=CCNC(=O)c1cc([N+](=O)[O-])cc2c(=O)[nH]c(Nc3ccc(Cl)c(Cl)c3)nc12`, the logD (pH 7.4, LogD7.4) was 2.7.
The same measure, in the same setting: with `O=C(NC1Cc2ccccc2N(CCCO)C1=O)c1cc2cc(Cl)sc2[nH]1` (centres undefined) the figure was 3.49; with `Cn1sc(NC(=O)c2ccccc2)nc1=O`, 1.13.
The compound `c1ccc(-c2ccc(C3CN4CCC3CC4)cc2)cc1` (centres undefined) displayed a logD (pH 7.4) of 1.76.
For the compound `Nc1[nH]nc2cccc(Cl)c12`, the logD (pH 7.4, LogD7.4) was found to be 1.92.
In turn, `CC(=O)Nc1ccc(S(=O)(=O)Nc2ccc(Cc3ccncc3)cc2)cc1` registered a pH-dependent lipophilicity (logD) (pH 7.4) of 2.8.
Consider `CC(C)CC(c1ccncc1)n1[nH]c(=O)c2nc3cc(Cl)ccc3c(O)c2c1=O` (centres undefined), for which the logD (pH 7.4, LogD7.4) stood at 1.64.
On the same count and under the same terms, with `OCC[C@@]1(c2cc3ccccc3o2)CCCNC1` the figure was 0.06.
The compound `O=C(Cc1ccc2c(n1)NCCC2)Nc1ccc(C[C@H](NC(=O)c2c(Cl)cccc2Cl)C(=O)O)cc1` had a logD (pH 7.4, LogD7.4) of -0.63.
On the same count and under the same terms, with `Cc1cc(=O)[nH]c2ccccc12` the figure was 1.9.
In the case of `NC(=O)c1cc(F)cc(O[C@H]2C[C@H]3CC[C@@H](C2)N3Cc2ccccc2)c1`, the logD (pH 7.4) worked out at 2.14.
Consider `COc1ccc(Cl)cc1C(=O)Nc1nc2ccccc2[nH]1`, for which the logD (pH 7.4, LogD7.4) stood at 4.05.
Same read-out and setting: then `CCC(c1nc2ccsc2c(=O)n1Cc1ccccc1)N(CCCN)C(=O)c1ccc(C(C)C)cc1` (centres undefined), with 2.72; and `C1=C(c2cc3ccccc3o2)C2CCN1CC2`, with 2.59.
For the compound `CCc1c(C(=O)C(N)=O)c2c(OCC(N)=O)cccc2n1Cc1ccccc1`, where the note is “pH 7.4”, the pH-dependent lipophilicity (logD) is 2.1.
With `CCNCc1cnc(-c2ccc(C(=O)Nc3ccccc3N)cc2)s1`, under “pH 7.4, LogD7.4”, the log distribution coefficient (logD) came out at 0.95.
Still for that read-out and setting: with `O=c1c2cnn(-c3ccccc3)c2nc(-c2ccco2)n1-c1ccccc1` the figure was 3.29; with `COCCNCc1ccc(CCNC[C@H](O)c2ccc(O)c3[nH]c(=O)sc23)cc1`, -0.54; with `COc1ccc(OC)c(-c2c(F)ccc3c(N)c(C(=O)NC(C)C)nnc23)c1`, 3.77.
Consider `C[C@H]1NC(C)(C)CO[C@]1(O)c1cccc(Cl)c1`, for which the logD (pH 7.4) worked out at 1.69.
Turning to `N=C(N)NC(=O)c1nc(Cl)c(NCc2ccncc2)nc1N`, the pH-dependent lipophilicity (logD) (pH 7.4, LogD7.4) was -0.51.
Consider `Oc1ncnc2[nH]ncc12` [ALLOPURINOL], for which the logD (pH 7.4) was -0.42.
Take `O=C(OCC(O)CO)c1ccccc1Nc1ccnc2cc(Cl)ccc12` (centres undefined) [GLAFENINE]: where the note is “pH 7.4, LogD7.4”, the logD came out at 3.5.
On the same count and under the same terms, with `CCOc1ccccc1-c1ccc(-c2nc3ccc(F)cc3c(N[C@H](C)C(=O)O)c2C#N)cc1` the figure was 2.5.
Same read-out and setting: with `Cc1cnc(NC(=O)c2cc(Oc3cnc(C(=O)N(C)C)nc3)c3cc(C)oc3c2)cn1` [NERIGLIATIN] the figure was 2.1; with `CC(=O)[C@H]1CC[C@H]2[C@@H]3C[C@H](C)C4=CC(=O)CC[C@]4(C)[C@H]3[C@@H](O)C[C@]12C` [MEDRYSONE], 3.25.
In turn, `C[C@@H]1CCCN1CCc1cc2cc(-c3ccc(C#N)cc3)ccc2o1` gave a logD (pH 7.4, LogD7.4) of 3.51.
`O=C(CN1C(=O)C(NC(=O)c2cc3cc(Cl)sc3[nH]2)Cc2ccccc21)NO` (centres undefined) registered a pH-dependent lipophilicity (logD) (pH 7.4, LogD7.4) of 2.4.
The same measure, in the same setting: with `CC#Cc1ccnc(-c2cc(C3(C4CC4)N=C(C)C(N)=N3)ccc2O)c1` (centres undefined) the figure was 3.6.
On to `N#Cc1cccc(-c2ccc(C3(CNC(=O)Nc4cc(Cl)cc(Cl)c4)CCN(CC4CC4)CC3)cc2)c1`, for which the pH-dependent lipophilicity (logD) (pH 7.4) was found to be 3.37.
`CC(C)C(NC(=O)Cn1c(-c2cccs2)ncc(N)c1=O)C(=O)C(F)(F)F` (centres undefined) gave a pH-dependent lipophilicity (logD) (pH 7.4, LogD7.4) of 0.68.
For the compound `CC(C)CNCc1ccc(-c2ccccc2S(=O)(=O)N2CCCC2)cc1` [PF-04455242], the pH-dependent lipophilicity (logD) (pH 7.4, LogD7.4) is 1.9.
Still for that read-out and setting: with `C[C@H](NC(=O)C1(N)CCN(c2ncnc3[nH]ccc23)CC1)c1ccc(Cl)cc1` the figure was 2.67; with `CN1CCCC(CN2CCN(C(=O)Nc3ccc(Cl)c(Cl)c3)CC2)C1` (centres undefined), 1.98; with `Nc1nc(SCc2ccccc2)nc2c1ncn2[C@@H]1O[C@H](CO)[C@@H](O)[C@H]1O`, 1.24.
Turning to `COc1ccc(-c2coc3cc(O)ccc3c2=O)cc1` [FORMONONETIN], the logD (pH 7.4, LogD7.4) is 3.05.
In the case of `Cc1cc(N)c2cc(NC(=O)CCCCC(=O)Nc3ccc4nc(C)cc(N)c4c3)ccc2n1`, under “pH 7.4, LogD7.4”, the pH-dependent lipophilicity (logD) stood at 0.53.
Where the note is “pH 7.4, LogD7.4”, `Cn1c(-c2ccccc2)cc2onc(-c3ccncc3)c2c1=O` yielded a logD of 3.17.
In turn, `NC(=NCc1ccc(Cl)cc1)SCCCc1cnc[nH]1` [CLOBENPROPIT] showed a logD (pH 7.4) of 1.13.
In turn, `Nc1nc2cc3c(cc2s1)CCN(Cc1cccc(F)c1)CC3` gave a logD (pH 7.4, LogD7.4) of 3.3.
Regarding `CC(=O)NCC(NC(=O)C1(N)CCN(c2ncnc3[nH]ccc23)CC1)c1ccc(Cl)cc1` (centres undefined), for the setting “pH 7.4, LogD7.4”, the pH-dependent lipophilicity (logD) was 2.4.
Where the note is “pH 7.4”, `O=c1c2ccccc2nc2n1CCS2(=O)=O` came in with a pH-dependent lipophilicity (logD) of 0.8.
With `Cc1ccc(NC(=O)c2ccnc(N3CCOCC3)c2)cc1Nc1ccnc(OCCCN(C)C)n1`, the log distribution coefficient (logD) (pH 7.4, LogD7.4) was 1.3.
In the case of `CCCNC(=O)c1nnc2c(-c3cncc(C(=O)N4CCC4)c3)cccc2c1N`, for the setting “pH 7.4”, the logD is 2.79.
Turning to `OCC[C@]1(c2cc3ccccc3o2)CCCNC1`, the pH-dependent lipophilicity (logD) (pH 7.4, LogD7.4) turned out to be 0.12.
Where the note is “pH 7.4, LogD7.4”, `COc1cc(OC)cc(-c2ccc(NC(=O)OCc3ccccc3)c(=O)n2CC(=O)NC(C(=O)C(F)(F)F)C(C)C)c1` (centres undefined) showed a logD of 2.26.
As to `Cc1c(CCC(=O)O)c(=O)oc2c(C)c(O)ccc12`, under “pH 7.4, LogD7.4”, the log distribution coefficient (logD) is -0.3.
On the same count and under the same terms, with `Oc1ccc(C2=Cc3ccc(O)cc3OC2)cc1` [IDRONOXIL] the figure was 3.8; with `CC[C@H](NC(=O)c1c([S+]([O-])CC)c(-c2ccccc2)nc2ccccc12)c1ccccc1` (some centres undefined), 3.45; with `COc1ccc(-c2cc(=O)c3ccccc3[nH]2)cc1`, 2.71.
Take `Cc1cc(N)c2cc(NC(=O)CCC(=O)Nc3ccc4nc(C)cc(N)c4c3)ccc2n1`: the logD (pH 7.4, LogD7.4) was 1.39.
For `CC(=O)N(C)c1ccccc1`, the log distribution coefficient (logD) (pH 7.4) was 1.1.
`CCCCC(NC(=O)CC1CCN(Cc2ccn(-c3ccc(C(F)(F)F)cc3)c2)CC1)c1ccc(=O)[nH]c1` (centres undefined) had a log distribution coefficient (logD) (pH 7.4, LogD7.4) of 2.89.
On the same count and under the same terms, then `c1ccc(CNCCNCc2ccccc2)cc1`, with 0.73; and `O=C1Nc2ccc(S(=O)(=O)N3CCC[C@H]3CNc3ccccc3)cc2C1=O`, with 2.4.
Under “pH 7.4”, `Cc1cc(C(N)=O)ccc1O[C@H]1C[C@H]2CC[C@@H](C1)N2Cc1ccccc1` yielded a logD of 2.23.
Regarding `FC(F)c1nc2ccccc2[nH]1`, the log distribution coefficient (logD) (pH 7.4, LogD7.4) is 2.02.
Same read-out and setting: with `CN(C)c1ccnc2sc3c(=O)n(-c4ccccc4)cnc3c12` the figure was 2.34.
Regarding `COc1ccc2c(c1)cc(C(=O)O)n2Cc1ccc(Cl)c(Cl)c1`, the logD (pH 7.4) is 1.66.
In turn, `O=C(Cc1ccccn1)c1ccc(Cl)cc1` returned a log distribution coefficient (logD) (pH 7.4, LogD7.4) of 2.96.
Same read-out and setting: with `O=C(N[C@@H](Cc1ccc(CCCCNc2ccccn2)cc1)C(=O)O)c1c(Cl)cccc1Cl` the figure was 0.51; with `CSc1ccc(OCc2ccccc2)c(/C=C/c2ccc(C(=O)O)cn2)c1`, 2.45; with `CN1CCC(=C2c3ccccc3C=Cc3ccccc32)CC1` [CYPROHEPTADINE], 3.06.
Still for that read-out and setting: then `CN(C)C(=O)N[C@H]1CC[C@H](CCN2CCN(c3ccc(Cl)c(Cl)c3)CC2)CC1`, with 3.15; and `CCN(CCCOCCOCCc1ccccc1)CCc1ccc(O)c2nc(O)sc12`, with 2.45.
In the case of `Nc1ccc(/N=N/c2ccccc2)c(N)n1` [PHENAZOPYRIDINE], the logD (pH 7.4, LogD7.4) was found to be 3.22.
Still for that read-out and setting: with `Cn1ncnc1-c1c2c(=O)n(C)c(=O)n(CC3CC3)c2nn1Cc1ccnc2ccc(Cl)cc12` the figure was 3.8.
On the same count and under the same terms, then `COc1ccc(OC)c(-c2cccc3c(N)c(C(=O)NC(C)C)nnc23)c1`, with 3.65.
Still for that read-out and setting: then `O=S(=O)(Nc1nnc(-c2ccccc2)s1)c1ccc(Cl)cc1`, with 1.14; and `O=C(NCc1ccccn1)c1ccc(Oc2ccccc2)cc1`, with 2.7; and `COCCNS(=O)(=O)c1ccc(-c2cnc(N)c(C(=O)Nc3cccnc3)n2)cc1`, with 2.26.
On to `O=C1C(=O)c2ccccc2-c2ccccc21` [9,10-PHENANTHRENEQUINONE], for which the logD (pH 7.4) was found to be 2.6.
Same read-out and setting: with `O=C(N[C@H]1CN2CCC1CC2)c1ccc(-c2ccccc2)s1` the figure was 1.9.
Where the note is “pH 7.4, LogD7.4”, `NC(=O)c1cccnc1Oc1ccccc1` had a pH-dependent lipophilicity (logD) of 1.13.
`COc1cc(O)cc2occ(-c3ccc(O)cc3)c(=O)c12` had a logD (pH 7.4, LogD7.4) of 2.
Take `NC1(C(=O)NC(CCCN2CCCC2)c2ccc(Cl)cc2)CCN(c2ncnc3[nH]ccc23)CC1` (centres undefined): under “pH 7.4, LogD7.4”, the log distribution coefficient (logD) turned out to be 1.3.
On the same count and under the same terms, then `CC(=O)NC[C@H]1CN(c2ccc(N3CCN(c4cnccn4)CC3)c(F)c2)C(=O)O1`, with 1.49.
On to `CCOC(=O)Nc1cccc([C@@H](c2ccc(C(=O)N(C)CC)cc2)N2CCN(Cc3c[nH]c(C)n3)CC2)c1`, for which the log distribution coefficient (logD) (pH 7.4) was determined as 2.11.
With `COc1cc2ncnc(NCc3cccc(C)c3)c2cc1OC`, under “pH 7.4, LogD7.4”, the pH-dependent lipophilicity (logD) was 3.5.
Same read-out and setting: with `C[C@@H](NC(=O)C1(N)CCN(c2ncnc3[nH]ccc23)CC1)c1ccc(Cl)cc1` the figure was 3.3; with `CNC(=O)C1(N2CCCCC2=O)CCN(CC[C@H](CN(C)C(=O)c2c(OC)c(C#N)cc3ccccc23)c2ccc(Cl)c(Cl)c2)CC1`, 2.78.
